This assay concerns the target T1, P2X4 (Homo sapiens, UniProt Q99571).
T1 sequence (Q99571 1-388): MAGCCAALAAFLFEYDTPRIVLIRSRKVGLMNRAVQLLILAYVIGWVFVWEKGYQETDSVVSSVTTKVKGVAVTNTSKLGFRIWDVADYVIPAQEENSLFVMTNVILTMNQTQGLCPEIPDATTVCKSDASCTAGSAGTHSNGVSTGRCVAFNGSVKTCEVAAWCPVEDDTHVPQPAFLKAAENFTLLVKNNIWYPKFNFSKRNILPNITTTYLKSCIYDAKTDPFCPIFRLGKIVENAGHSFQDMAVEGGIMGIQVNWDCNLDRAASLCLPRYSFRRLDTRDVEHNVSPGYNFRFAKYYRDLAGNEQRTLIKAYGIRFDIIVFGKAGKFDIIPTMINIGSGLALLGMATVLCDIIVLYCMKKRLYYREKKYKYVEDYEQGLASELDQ
Kind of assay: Assay B: human P2X4 receptor cell line, mitochondrial photina luminescence (agonist Bz-ATP at EC50). The arrangement: host or cells: HEK 293 (recombinant, constitutively expressing; with mitochondrial photina in Assay B). It is filed as cell-based. Conditions: HEK human P2X4 cell line, photina luminescence, agonist Bz-ATP at EC50, average; for Emax: read-out: human P2X4 Assay B avg Efficacy. The gist of the method: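 Recombinant cell line constitutively expressing human P2X4 and mitochondrial photina photoprotein, reconstituted with coelenterazine. Receptor stimulated with Bz-ATP at EC50; calcium influx read immediately as luminescence.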

Each structure is given as a SMILES string.

`CC(Oc1ccc(NC(=O)Cc2ccccc2Cl)cc1S(N)(=O)=O)c1ccccc1` (single isomer, unassigned) [Example 148B, 2-(2-Chlorophenyl)-N-[4-(1-phenylethoxy)-3-sulfamoylphenyl]acetamide]: the IC50 amounted to 519 nM and the “human P2X4 Assay B avg Efficacy” value was found to be 64%. Turning to `NS(=O)(=O)c1cc(NC(=O)Cc2ccccc2)ccc1Oc1cccc(C(F)(F)F)c1` [Example 253, 2-Phenyl-N-{3-sulfamoyl-4-[3-(trifluoromethyl)phenoxy]phenyl}acetamide], the IC50 was found to be 236 nM and the Emax was determined as 71%.

On to `N#Cc1cccc(Oc2ccc(NC(=O)Cc3ccccc3)cc2S(N)(=O)=O)c1` [Example 255, N-[4-(3-Cyanophenoxy)-3-sulfamoylphenyl]-2-phenylacetamide], for which the IC50 is 271 nM and the Emax stood at 64%. The like results for `NS(=O)(=O)c1cc(NC(=O)Cc2cc(Cl)ccc2Cl)ccc1Oc1cccc(Cl)c1` [Example 114, N-[4-(3-Chlorophenoxy)-3-sulfamoylphenyl]-2-(2,5-dichlorophenyl)acetamide] were, in that order, 305 nM and 64%. In the same order, the values of `COc1ccccc1Oc1ccc(NC(=O)Cc2ccccc2)cc1S(N)(=O)=O` [Example 070, N-[4-(2-Methoxyphenoxy)-3-sulfamoylphenyl]-2-phenylacetamide] are 1100 nM and 70%. The like results for `N#Cc1cc(F)cc(Oc2ccc(NC(=O)Cc3ccccc3Cl)cc2S(N)(=O)=O)c1` [Example 069, 2-(2-chlorophenyl)-N-[4-(3-cyano-5-fluorophenoxy)-3-sulfamoylphenyl]acetamide] were, in that order, 2680 nM and 71%. With `NS(=O)(=O)c1cc(NC(=O)Cc2cc3c(cc2Cl)OCCO3)ccc1Oc1cccc(Cl)c1` [Example 277, 2-(7-Chloro-2,3-dihydro-1,4-benzodioxin-6-yl)-N-[4-(3-chlorophenoxy)-3-sulfamoylphenyl]acetamide], the IC50 turned out to be 185 nM and the Emax stood at 45%. In the case of `CN1CCC(Oc2ccc(NC(=O)Cc3ccccc3Cl)cc2S(N)(=O)=O)CC1` [Example 238, 2-(2-Chlorophenyl)-N-{4-[(1-methylpiperidin-4-yl)oxy]-3-sulfamoylphenyl}acetamide], the 50% inhibitory concentration (IC50) is above 16000 nM. On to `NS(=O)(=O)c1cc(NC(=O)Cc2ccccc2)ccc1Oc1ccc(F)cc1` [Example 248, N-[4-(4-Fluorophenoxy)-3-sulfamoylphenyl]-2-phenylacetamide], for which the IC50 is 1280 nM and the Emax came out at 62%. In the same order, the values of `NS(=O)(=O)c1cc(NC(=O)Cc2cccc(OCCO)c2)ccc1Oc1cccc(Cl)c1` [Example 212, N-[4-(3-Chlorophenoxy)-3-sulfamoylphenyl]-2-[3-(2-hydroxyethoxy)phenyl]acetamide] are 406 nM and 85%. Consider `NS(=O)(=O)c1cc(NC(=O)Cc2ccccc2OC(F)(F)F)ccc1Oc1cccc(Cl)c1` [Example 105, N-[4-(3-Chlorophenoxy)-3-sulfamoylphenyl]-2-[2-(trifluoromethoxy)phenyl]acetamide], for which the IC50 is 203 nM and the Emax came out at 75%. The like results for `NS(=O)(=O)c1cc(NC(=O)Cc2ccncc2)ccc1Oc1cccc(Cl)c1` [Example 188, N-[4-(3-Chlorophenoxy)-3-sulfamoylphenyl]-2-(pyridin-4-yl)acetamide] were, in that order, 2560 nM and 71%. Consider `NS(=O)(=O)c1cc(NC(=O)Cc2ccc(C(F)(F)F)cc2)ccc1Oc1ccccc1Cl` [Example 073, N-[4-(2-Chlorophenoxy)-3-sulfamoylphenyl]-2-[4-(trifluoromethyl)phenyl]acetamide], for which the IC50 amounted to 3370 nM and the Emax worked out at 65%. With `NS(=O)(=O)c1cc(NC(=O)Cc2ccccc2Cl)ccc1OCC1CCOC1` (stereo not drawn) [Example 162, 2-(2-Chlorophenyl)-N-[3-sulfamoyl-4-(tetrahydrofuran-3-ylmethoxy)phenyl]acetamide], the IC50 amounted to 335 nM and the Emax was found to be 66%. `Cc1cc(Oc2cccc(Cl)c2)c(S(N)(=O)=O)cc1NC(=O)Cc1ccccc1Cl` [Example 240, N-[4-(3-Chlorophenoxy)-2-methyl-5-sulfamoylphenyl]-2-(2-chlorophenyl)acetamide]: the IC50 was found to be 3040 nM and the Emax is 86%. The like results for `Cc1c(C#N)cccc1Oc1ccc(NC(=O)Cc2ccccc2Cl)cc1S(N)(=O)=O` [Example 046, 2-(2-Chlorophenyl)-N-[4-(3-cyano-2-methylphenoxy)-3-sulfamoylphenyl]acetamide] were, in that order, 841 nM and 75%. The like results for `N#Cc1ccccc1COc1ccc(NC(=O)Cc2ccccc2Cl)cc1S(N)(=O)=O` [Example 145, 2-(2-Chlorophenyl)-N-{4-[(2-cyanobenzyl)oxy]-3-sulfamoylphenyl}acetamide] were, in that order, 194 nM and 72%.

As for `NS(=O)(=O)c1cc(NC(=O)Cc2ccccc2)ccc1OC1CCCCC1` [Example 199, N-[4-(Cyclohexyloxy)-3-sulfamoylphenyl]-2-phenylacetamide], the half-inhibitory concentration (IC50) was determined as 1960 nM and the Emax was 70%. In the same order, the values of `NS(=O)(=O)c1cc(NC(=O)Cc2ccccc2)ccc1OC1CCOCC1` [Example 206, 2-Phenyl-N-[3-sulfamoyl-4-(tetrahydro-2H-pyran-4-yloxy)phenyl]acetamide] are 10800 nM and 88%. For `CN1CCN=C1c1cccc(Oc2ccc(NC(=O)Cc3ccccc3Cl)cc2S(N)(=O)=O)c1` [Example 041, 2-(2-Chlorophenyl)-N-{4-[3-(1-methyl-4,5-dihydro-1H-imidazol-2-yl)phenoxy]-3-sulfamoylphenyl}acetamide], the IC50 was 3380 nM and the Emax was 72%.

In the case of `NS(=O)(=O)c1cc(NC(=O)C(F)(F)c2ccccc2)ccc1Oc1cccc(Cl)c1` [Example 106, N-[4-(3-Chlorophenoxy)-3-sulfamoylphenyl]-2,2-difluoro-2-phenylacetamide], the IC50 stood at 524 nM and the Emax is 42%.

For the compound `NS(=O)(=O)c1cc(NC(=O)Cc2ccccc2Cl)ccc1Oc1cccc(N2CCN(C(=O)Cc3ccccc3Cl)CC2)c1` [Example 027, 2-(2-Chlorophenyl)-N-[4-(3-{4-[(2-chlorophenyl)acetyl]piperazin-1-yl}phenoxy)-3-sulfamoylphenyl]acetamide], the IC50 amounted to 776 nM and the Emax was determined as 99%.

Consider `N#Cc1cccc(CC(=O)Nc2ccc(Oc3cccc(Cl)c3)c(S(N)(=O)=O)c2)c1` [Example 226, N-[4-(3-Chlorophenoxy)-3-sulfamoylphenyl]-2-(3-cyanophenyl)acetamide], for which the IC50 stood at 491 nM and the Emax stood at 75%. `NS(=O)(=O)c1cc(NC(=O)Cc2ccccc2)ccc1OC1CCC1` [Example 204, N-[4-(Cyclobutyloxy)-3-sulfamoylphenyl]-2-phenylacetamide]: the IC50 worked out at 4040 nM and the Emax came to 60%. The like results for `CN(C)C(=O)c1ccccc1CC(=O)Nc1ccc(Oc2cccc(Cl)c2)c(S(N)(=O)=O)c1` [Example 198, 2-(2-{[4-(3-Chlorophenoxy)-3-sulfamoylphenyl]amino}-2-oxoethyl)-N,N-dimethylbenzamide] were, in that order, 4740 nM and 60%. With `NS(=O)(=O)c1cc(NC(=O)Cc2ccccc2Cl)ccc1OCC1CCCO1` (stereo not drawn) [Example 161, 2-(2-Chlorophenyl)-N-[3-sulfamoyl-4-(tetrahydrofuran-2-ylmethoxy)phenyl]acetamide], the IC50 came out at 832 nM and the Emax is 74%. In the case of `NS(=O)(=O)c1cc(NC(=O)Cc2ccc(C(F)(F)F)cc2)ccc1Oc1ccc(Cl)cc1` [Example 227, N-[4-(4-Chlorophenoxy)-3-sulfamoylphenyl]-2-[4-(trifluoromethyl)phenyl]acetamide], the IC50 worked out at 1770 nM and the Emax is 69%.

For the compound `NS(=O)(=O)c1cc(NC(=O)Cc2ccccc2)ccc1OC1COC1` [Example 215, N-[4-(Oxetan-3-yloxy)-3-sulfamoylphenyl]-2-phenylacetamide], the IC50 was found to be 1510 nM and the Emax is 68%. In the same order, the values of `CN1CCC(Oc2ccc(NC(=O)Cc3ccccc3)cc2S(N)(=O)=O)C1` (stereo not drawn) [Example 221, N-{4-[(1-Methylpyrrolidin-3-yl)oxy]-3-sulfamoylphenyl}-2-phenylacetamide] are above 50000 nM and 30%. For the compound `CN1CCCC(Oc2ccc(NC(=O)Cc3ccccc3Cl)cc2S(N)(=O)=O)C1` (stereo not drawn) [Example 220, 2-(2-Chlorophenyl)-N-{4-[(1-methylpiperidin-3-yl)oxy]-3-sulfamoylphenyl}acetamide], the IC50 stood at 3810 nM and the Emax stood at 77%.

`N#Cc1cc(Cl)cc(Oc2ccc(NC(=O)Cc3ccccc3Cl)cc2S(N)(=O)=O)c1` [Example 001, N-[4-(3-Chloro-5-cyanophenoxy)-3-sulfamoylphenyl]-2-(2-chlorophenyl)acetamide]: the IC50 was 7720 nM and the Emax came to 61%. The like results for `NS(=O)(=O)c1cc(NC(=O)Cc2ccccc2Cl)ccc1OCC1COC1` [Example 159, 2-(2-Chlorophenyl)-N-[4-(oxetan-3-ylmethoxy)-3-sulfamoylphenyl]acetamide] were, in that order, 1180 nM and 91%.

Source of the values: patent US20180338980A1, “AROMATIC SULFONAMIDE DERIVATIVES” (BAYER PHARMA AKTIENGESELLSCHAFT, priority 2015, published 2018).
